Holding throughout (format): biochemical
Assay [1] deals with T1, MAGL (Mus musculus, UniProt O35678).
T1 construct: Proteomes (mouse brain membrane fraction or cell lysates); from tissue; host or cells: mouse brain membrane fraction (or unspecified cell lysates)
T1 sequence (O35678 1-303): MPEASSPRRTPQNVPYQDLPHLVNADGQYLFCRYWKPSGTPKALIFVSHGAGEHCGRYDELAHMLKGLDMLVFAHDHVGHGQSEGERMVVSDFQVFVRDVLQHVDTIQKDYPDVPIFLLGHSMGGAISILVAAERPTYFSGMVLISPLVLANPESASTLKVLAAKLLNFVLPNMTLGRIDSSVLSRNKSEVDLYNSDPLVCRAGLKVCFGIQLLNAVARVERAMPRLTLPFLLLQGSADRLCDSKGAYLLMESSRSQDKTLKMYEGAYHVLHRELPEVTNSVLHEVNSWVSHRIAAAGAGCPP
Description: In vitro competitive activity-based protein profiling (mouse), MAGL. As to conditions: for inhibition at 1 µM: mouse proteome, in vitro, read-out: % Inhibition at 1 μM MAGL; for IC50: mouse brain membrane fraction or cell lysates, 30 min preincubation at 37° C, FP-Rh probe. The protocol: (§1) In Vitro Competitive Activity-Based Protein Profiling (Mouse).
(§2) Proteomes (mouse brain membrane fraction or cell lysates) (50 μL, 1.0 mg/mL total protein concentration) were preincubated with varying concentrations of inhibitors at 37° C. After 30 min, FP-Rh (1.0 μL, 50 μM in DMSO) was added and the mixture was incubated for another 30 min at 37° C. Reactions were quenched with SDS loading buffer (50 μL-4×) and run on SDS-PAGE.

The target of assay [2] is T2, ABHD6 (Mus musculus, UniProt Q8R2Y0).
T2 construct: Proteomes (mouse brain membrane fraction or cell lysates); from tissue; host or cells: mouse brain membrane fraction (or unspecified cell lysates)
T2 sequence (Q8R2Y0 1-336): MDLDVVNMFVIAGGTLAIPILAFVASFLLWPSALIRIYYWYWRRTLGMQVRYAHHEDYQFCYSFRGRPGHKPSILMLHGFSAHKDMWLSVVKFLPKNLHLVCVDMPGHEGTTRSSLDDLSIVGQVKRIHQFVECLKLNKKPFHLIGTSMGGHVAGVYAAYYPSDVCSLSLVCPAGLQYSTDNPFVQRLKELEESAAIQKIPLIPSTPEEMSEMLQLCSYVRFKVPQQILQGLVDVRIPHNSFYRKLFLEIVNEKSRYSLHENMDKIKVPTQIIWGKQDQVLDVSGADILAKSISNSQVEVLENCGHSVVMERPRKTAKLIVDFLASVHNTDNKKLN
Description: In vitro competitive activity-based protein profiling (mouse), ABHD6. The following applies: for inhibition at 1 µM: mouse proteome, in vitro, read-out: % Inhibition at 1 μM ABHD6; for IC50: mouse brain membrane fraction or cell lysates, 30 min preincubation at 37° C, FP-Rh probe. The protocol: as §1, §2

Assay [3] has as its target T3, FAAH (Mus musculus, UniProt O08914).
T3 construct: Proteomes (mouse brain membrane fraction or cell lysates); from tissue; host or cells: mouse brain membrane fraction (or unspecified cell lysates)
T3 sequence (O08914 1-579): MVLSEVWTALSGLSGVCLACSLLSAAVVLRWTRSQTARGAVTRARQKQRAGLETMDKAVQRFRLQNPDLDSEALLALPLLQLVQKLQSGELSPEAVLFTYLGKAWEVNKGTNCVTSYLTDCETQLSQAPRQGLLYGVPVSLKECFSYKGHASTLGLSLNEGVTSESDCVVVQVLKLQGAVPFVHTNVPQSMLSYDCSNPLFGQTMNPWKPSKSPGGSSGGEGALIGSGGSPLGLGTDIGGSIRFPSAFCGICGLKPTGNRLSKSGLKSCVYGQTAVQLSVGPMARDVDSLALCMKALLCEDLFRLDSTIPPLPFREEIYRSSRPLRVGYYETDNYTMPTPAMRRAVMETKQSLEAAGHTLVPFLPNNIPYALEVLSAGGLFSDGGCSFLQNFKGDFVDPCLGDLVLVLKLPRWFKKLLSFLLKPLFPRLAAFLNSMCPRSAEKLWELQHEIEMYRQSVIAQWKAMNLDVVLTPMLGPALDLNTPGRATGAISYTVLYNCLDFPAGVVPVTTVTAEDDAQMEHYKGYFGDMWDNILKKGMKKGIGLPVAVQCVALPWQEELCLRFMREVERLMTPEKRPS
In words: In vitro competitive activity-based protein profiling (mouse), FAAH. As to conditions: for inhibition at 1 µM: mouse proteome, in vitro; for IC50: mouse brain membrane fraction or cell lysates, 30 min preincubation at 37° C, FP-Rh probe. Put shortly: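 Competitive ABPP: inhibitor exposure (30 min, 37° C) of mouse brain membrane or lysate proteome at 1.0 mg/mL, then labelling with FP-Rh for another 30 min. Activity quantified by in-gel fluorescence of FAAH bands after SDS-PAGE.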

For 13 compounds, inhibition and IC50 results are on record in patent US9771341B2, “Piperazine carbamates and methods of making and using same” (Abide Therapeutics, Inc., priority 2015, dated 2017).

In the case of `O=C(OC(C(F)(F)F)C(F)(F)F)N1CCN(Cc2ccc(Cl)cc2N2CCC3(CCCN3C3CC3)CC2)CC1` [Example 66, 1,1,1,3,3,3-hexafluoropropan-2-yl 4-(4-chloro-2-(1-cyclopropyl-1,8-diazaspiro[4.5]decan-8-yl)benzyl)piperazine-1-carboxylate], the inhibition at 1 µM in assay [1] was above 75%; in assay [2] it was 25 to 75%; in assay [3], below 25%. Also, the IC50 was 100 to 1000 nM in assay [1], above 1000 nM in assay [2] and above 1000 nM in assay [3].

Regarding `O=C(OC(C(F)(F)F)C(F)(F)F)N1CCN(Cc2ccc(C(F)(F)F)cc2N2CCC3(CCCN3C3CC3)CC2)CC1` [Example 67, 1,1,1,3,3,3-hexafluoropropan-2-yl 4-(2-(1-cyclopropyl-1,8-diazaspiro[4.5]decan-8-yl)-4-(trifluoromethyl)benzyl)piperazine-1-carboxylate], the inhibition at 1 µM is above 75% in assay [1], below 25% in assay [2] and below 25% in assay [3]. For the same compound, the IC50 in assay [1] is 100 to 1000 nM; in assay [2] it was above 1000 nM; in assay [3], above 1000 nM.

For `O=C(OC(C(F)(F)F)C(F)(F)F)N1CCN(Cc2ccc(C(F)(F)F)cc2N2CCC(C(=O)N3CCCC3)CC2)CC1` [Example 68, 1,1,1,3,3,3-hexafluoropropan-2-yl 4-(2-(4-(pyrrolidine-1-carbonyl)piperidin-1-yl)-4-(trifluoromethyl)benzyl)piperazine-1-carboxylate], the inhibition at 1 µM in assay [1] was above 75%; in assay [2], below 25%; in assay [3], below 25%. For the same compound, the IC50 in assay [1] was 100 to 1000 nM; in assay [2], above 1000 nM; in assay [3], above 1000 nM.

On to `CCOC(=O)C1CCCN1c1cc(C(F)(F)F)ccc1CN1CCN(C(=O)OC(C(F)(F)F)C(F)(F)F)CC1` (stereo not drawn) [Example 70, 1,1,1,3,3,3-hexafluoropropan-2-yl 4-(2-(2-(ethoxycarbonyl)pyrrolidin-1-yl)-4-(trifluoromethyl)benzyl)piperazine-1-carboxylate], for which the inhibition at 1 µM was above 75% in assay [1], above 75% in assay [2] and below 25% in assay [3]. Also, the IC50 was below 100 nM in assay [1], 100 to 1000 nM in assay [2] and above 1000 nM in assay [3].

Take `O=C(O)C1CCN(c2cc(C(F)(F)F)ccc2CN2CCN(C(=O)OC(C(F)(F)F)C(F)(F)F)CC2)C1` (stereo not drawn) [Example 72, 1-(2-((4-(((1,1,1,3,3,3-hexafluoropropan-2-yl)oxy)carbonyl)piperazin-1-yl)methyl)-5-(trifluoromethyl)phenyl)pyrrolidine-3-carboxylic acid]: the inhibition at 1 µM is above 75% in assay [1], above 75% in assay [2] and below 25% in assay [3]. In addition, the IC50 in assay [1] is below 100 nM; in assay [2], 100 to 1000 nM; in assay [3] it was above 1000 nM.

Take `O=C(OC(C(F)(F)F)C(F)(F)F)N1CCN(Cc2ccc(C(F)(F)F)cc2N2CCC(CO)C2)CC1` (stereo not drawn) [Example 73, 1,1,1,3,3,3-hexafluoropropan-2-yl 4-(2-(3-(hydroxymethyl)pyrrolidin-1-yl)-4-(trifluoromethyl)benzyl)piperazine-1-carboxylate]: the inhibition at 1 µM in assay [1] is above 75%; in assay [2], above 75%; in assay [3] it was below 25%. The IC50 was below 100 nM in assay [1], 100 to 1000 nM in assay [2] and above 1000 nM in assay [3].

`O=C(O)C(=O)c1cc(C(F)(F)F)ccc1CN1CCN(C(=O)OC(C(F)(F)F)C(F)(F)F)CC1` [Example 76, 2-(2-((4-(((1,1,1,3,3,3-hexafluoropropan-2-yl)oxy)carbonyl)piperazin-1-yl)methyl)-5-(trifluoromethyl)phenyl)-2-oxoacetic acid]: the results for the inhibition at 1 µM in assay [1], in assay [2] and in assay [3] were above 75%, above 75% and below 25%, respectively. Also, the IC50 in assay [1] was below 100 nM; in assay [2], above 1000 nM; in assay [3], above 1000 nM.

Take `O=C(O)[C@@H]1CCCN1c1cc(CN2CCN(C(=O)OC(C(F)(F)F)C(F)(F)F)CC2)ccc1C(F)(F)F` [Example 77, (5-((4-(((1,1,1,3,3,3-hexafluoropropan-2-yl)oxy)carbonyl)piperazin-1-yl)methyl)-2-(trifluoromethyl)phenyl)proline]: the figures for the inhibition at 1 µM in assay [1], in assay [2] and in assay [3] were above 75%, above 75% and below 25%, respectively. Further, the IC50 in assay [1] is 100 to 1000 nM; in assay [2], above 1000 nM; in assay [3], above 1000 nM.

With `CCOC(=O)C1CCCN1c1cc(CN2CCN(C(=O)OC(C(F)(F)F)C(F)(F)F)CC2)ccc1C(F)(F)F` (stereo not drawn) [Example 78, 1,1,1,3,3,3-hexafluoropropan-2-yl 4-(3-(2-(ethoxycarbonyl)pyrrolidin-1-yl)-4-(trifluoromethyl)benzyl)piperazine-1-carboxylate], the figures for the inhibition at 1 µM in assay [1], in assay [2] and in assay [3] were above 75%, above 75% and below 25%, respectively. The results for the IC50 in assay [1], in assay [2] and in assay [3] were below 100 nM, 100 to 1000 nM and above 1000 nM, respectively.

Consider `O=C(OC(C(F)(F)F)C(F)(F)F)N1CCN(Cc2ccc(C(F)(F)F)c(N3CCCC3CO)c2)CC1` (stereo not drawn) [Example 79, 1,1,1,3,3,3-hexafluoropropan-2-yl 4-(3-(2-(hydroxymethyl)pyrrolidin-1-yl)-4-(trifluoromethyl)benzyl)piperazine-1-carboxylate], for which the inhibition at 1 µM in assay [1] was above 75%; in assay [2], above 75%; in assay [3], below 25%. Further, the IC50 in assay [1] is below 100 nM; in assay [2], below 100 nM; in assay [3], above 1000 nM.

On to `O=C(O)C1CCN(c2cc(CN3CCN(C(=O)OC(C(F)(F)F)C(F)(F)F)CC3)ccc2C(F)(F)F)C1` (stereo not drawn) [Example 80, 1-(5-((4-(((1,1,1,3,3,3-hexafluoropropan-2-yl)oxy)carbonyl)piperazin-1-yl)methyl)-2-(trifluoromethyl)phenyl)pyrrolidine-3-carboxylic acid], for which the inhibition at 1 µM in assay [1] was above 75%; in assay [2] it was 25 to 75%; in assay [3] it was below 25%. For the same compound, the results for the concentration for half-maximal inhibition (IC50) in assay [1], in assay [2] and in assay [3] were below 100 nM, 100 to 1000 nM and above 1000 nM, respectively.

`O=C(OC(C(F)(F)F)C(F)(F)F)N1CCN(Cc2ccc(C(F)(F)F)c(N3CCC(CO)C3)c2)CC1` (stereo not drawn) [Example 81, 1,1,1,3,3,3-hexafluoropropan-2-yl 4-(3-(3-(hydroxymethyl)pyrrolidin-1-yl)-4-(trifluoromethyl)benzyl)piperazine-1-carboxylate]: the inhibition at 1 µM in assay [1] is above 75%; in assay [2], above 75%; in assay [3], below 25%. Moreover, the results for the IC50 in assay [1], in assay [2] and in assay [3] were 100 to 1000 nM, 100 to 1000 nM and above 1000 nM, respectively.

On to `O=C(OC(C(F)(F)F)C(F)(F)F)N1CCN(Cc2ccc(C(F)(F)F)c(N3CCC(CO)CC3)c2)CC1` [Example 82, 1,1,1,3,3,3-hexafluoropropan-2-yl 4-(3-(4-(hydroxymethyl)piperidin-1-yl)-4-(trifluoromethyl)benzyl)piperazine-1-carboxylate], for which the inhibition at 1 µM in assay [1] was above 75%; in assay [2] it was above 75%; in assay [3], below 25%. Moreover, the results for the IC50 in assay [1], in assay [2] and in assay [3] were below 100 nM, 100 to 1000 nM and above 1000 nM, respectively.
